This assay concerns SU-DHL-4 cells. Briefly: Inhibitory effect on cell viability (Cell Counting Kit-8). The class given is cell-based. The conditions noted are these: Homo sapiens, 72 hours culture with test compound, concentration showing 90% inhibition rate of cell viability. The protocol:
Inhibitiory Effect on Cell Viability
SU-DHL-4 cells (Code No. ACC 495, Deutsche Sammlung von Mikroorganismen and Zellkulturen GmbH) were cultured at 37° C. using a carbon dioxide incubator (95% air, 5% CO2) in RPMI1640 medium (Code No. 11875-093, Thermo Fisher Scientific) in which inactivated fetal bovine serum (FBS: Code No. 10099-148, Thermo Fisher Scientific) in an amount to give a final concentration of 10 vol % and penicillin/streptomycin solution (PS: Code No. 15140-122, Thermo Fisher Scientific) in an amount to give a final concentration of 1 vol % were added. The cells were passaged twice a week at a volume of 20-40 mL so as to maintain a cell concentration of 1×10^6 cells/mL or less.
The cultured SU-DHL-4 cells were seeded at 2000 cells/well in a transparent 384-well plate (Code No. 781182, Greiner bio-one). After seeding, the cells were precultured at 37° C. in a carbon dioxide gas incubator for 18 to 25 hours. Next, 1, 0.1 or 0.01 mmol/L DMSO solution of the test compound was prepared and a 9-step dilution series were prepared so that the concentration will be 200 times the final concentration in the RPMI1640 medium containing the above FBS and PS, and 1/200 volume of the dilution series were added to each well. At this time, the final concentration of DMSO was adjusted to be 0.1 vol %. After adding the test compound, the cells were cultured at 37° C. in a carbon dioxide gas incubator for 72 hours. Next, 0.020 mL of Cell Counting Kit-8 (Code No. CK04, DOJINDO) solution diluted 2-fold or 4-fold with phosphate buffered saline (PBS) was added to each well. Color reaction was carried out in a carbon dioxide gas incubator at 37° C. for 2 to 3 hours, and the absorbance at a wavelength of 450 nm was measured using SpectraMax 340PC (Molecular Devices). The inhibition rate of cell viability was calculated by the following formula, and the concentration of the test compound (IC90 value) showing a 90% inhibition rate of cell viability was calculated. Inhibition rate of cell viability (%)=100−(A−B)/(C−B)×100 • A: Absorbance of a well containing test compound • B: Absorbance of a well without addition of cells • C: Absorbance of a well without addition of test compound

Turning to `CCC(=O)N1c2ccccc2[C@H](Nc2ccc(NC(=O)Cn3cc(-c4ccc(N[C@@H]5C[C@H](C)N(C(=O)CC)c6ccccc65)cc4)cn3)cc2)C[C@@H]1C` (relative stereo) [Compound 6n, N-(4-(((2S*,4R*)-2-Methyl-1-propionyl-1,2,3,4-tetrahydroquinolin-4-yl)amino)phenyl)-2-(4-(4-(((2S,4R)-2-methyl-1-propionyl-1,2,3,4-tetrahydroquinolin-4-yl)amino)phenyl)-1H-pyrazol-1-yl)acetamide], the 90% effect level (IC90) was put at 0.13 nM.
`CCC(=O)N1c2ccccc2[C@H](Nc2ccc(-n3cc(CNC(=O)N4CCC(N[C@@H]5C[C@H](C)N(C(=O)CC)c6ccccc65)CC4)nn3)cc2)C[C@@H]1C` (relative stereo) [Compound 10b, 4-(((2S*,4R*)-2-Methyl-1-propionyl-1,2,3,4-tetrahydroquinolin-4-yl)amino)-N-((1-(4-(((2S,4R)-2-methyl-1-propionyl-1,2,3,4-tetrahydroquinolin-4-yl)amino)phenyl)-1H-1,2,3-triazol-4-yl)methyl)piperidine-1-carboxamide] gave an IC90 of 0.6 nM.
In the case of `CCC(=O)N1c2ccccc2[C@H](Nc2ccc(-c3cnn(CCNC(=O)N4CCC(N[C@@H]5C[C@H](C)N(C(=O)CC)c6ccccc65)CC4)c3)cc2)C[C@@H]1C` (relative stereo) [Compound 10d, 4-(((2S*,4R*)-2-Methyl-1-propionyl-1,2,3,4-tetrahydroquinolin-4-yl)amino)-N-(2-(4-(4-(((2S,4R)-2-methyl-1-propionyl-1,2,3,4-tetrahydroquinolin-4-yl)amino)phenyl)-1H-pyrazol-1-yl)ethyl)piperidine-1-carboxamide], the IC90 came out at 3.42 nM.
`CCC(=O)N1c2ccccc2[C@H](Nc2ccc(NC(=O)C3CN(C(=O)N4CCC(N[C@@H]5C[C@H](C)N(C(=O)CC)c6ccccc65)CC4)C3)cc2)C[C@@H]1C` (relative stereo) [Compound 10e, N-(4-(((2S*,4R*)-2-Methyl-1-propionyl-1,2,3,4-tetrahydroquinolin-4-yl)amino)phenyl)-1-(4-(((2S,4R)-2-methyl-1-propionyl-1,2,3,4-tetrahydroquinolin-4-yl)amino)piperidine-1-carbonyl)azetidine-3-carboxamide]: the IC90 was found to be 3.59 nM.
For `CCC(=O)N1c2ccccc2[C@H](NCc2ccc(C(=O)N3CC(C(=O)Nc4ccc(N[C@@H]5C[C@H](C)N(C(=O)CC)c6ccccc65)cc4)C3)cc2)C[C@@H]1C` (relative stereo) [Compound 10g, 1-(4-((((2S*,4R*)-2-Methyl-1-propionyl-1,2,3,4-tetrahydroquinolin-4-yl)amino)methyl)benzoyl)-N-(4-(((2S,4R)-2-methyl-1-propionyl-1,2,3,4-tetrahydroquinolin-4-yl)amino)phenyl)azetidine-3-carboxamide] the value was 1.15 nM.
With `CCC(=O)N1c2ccccc2[C@H](Nc2ccc(CNCc3cn(-c4ccc(N[C@@H]5C[C@H](C)N(C(=O)CC)c6ccccc65)nc4)nn3)cc2)C[C@@H]1C` (relative stereo) [Compound 10j, 1-((2S,4R)-2-Methyl-4-((4-((((1-(6-(((2S*,4R*)-2-methyl-1-propionyl-1,2,3,4-tetrahydroquinolin-4-yl)amino)pyridin-3-yl)-1H-1,2,3-triazol-4-yl)methyl)amino)methyl)phenyl)amino)-3,4-dihydroquinoline-1(2H)-yl)propan-1-one], the IC90 was found to be 1.73 nM.
Consider `CCC(=O)N1c2ccccc2[C@H](Nc2ccc(NC(=O)CCCC(=O)Nc3ccc(N[C@@H]4C[C@H](C)N(C(=O)CC)c5ccccc54)cn3)cc2)C[C@@H]1C` (relative stereo) [Compound 10l, N^1-(4-(((2S,4R)-2-Methyl-1-propionyl-1,2,3,4-tetrahydroquinolin-4-yl)amino)phenyl)-N^5-(5-(((2S*,4R*)-2-methyl-1-propionyl-1,2,3,4-tetrahydroquinolin-4-yl)amino)pyridin-2-yl)glutaramide], for which it took 1.08 nM to reach the 90% level (IC90).
With `CCC(=O)N1c2ccccc2[C@H](Nc2ccc(C(=O)N3CCC(C(=O)Nc4ccc(N[C@@H]5C[C@H](C)N(C(=O)CC)c6ccccc65)nc4)CC3)cc2)C[C@@H]1C` (relative stereo) [Compound 10m, 1-(4-(((2S,4R)-2-Methyl-1-propionyl-1,2,3,4-tetrahydroquinolin-4-yl)amino)benzoyl)-N-(6-(((2S*,4R*)-2-methyl-1-propionyl-1,2,3,4-tetrahydroquinolin-4-yl)amino)pyridin-3-yl)piperidine-4-carboxamide], the IC90 worked out at 30.9 nM.
Consider `CCC(=O)N1c2ccccc2[C@H](Nc2ccc(C(=O)NCC#CC(=O)Nc3ccc(N[C@@H]4C[C@H](C)N(C(=O)CC)c5ccccc54)nc3)cc2)C[C@@H]1C` (relative stereo) [Compound 10n, 4-(((2S,4R)-2-Methyl-1-propionyl-1,2,3,4-tetrahydroquinolin-4-yl)amino)-N-(4-((6-(((2S*,4R*)-2-methyl-1-propionyl-1,2,3,4-tetrahydroquinolin-4-yl)amino)pyridin-3-yl)amino)-4-oxobut-2-yn-1-yl)benzamide], for which it took 0.01 nM to reach the 90% level (IC90).
In the case of `CCC(=O)N1c2ccccc2[C@H](Nc2ccc(C(=O)NCCC(=O)Nc3ccc(N[C@@H]4C[C@H](C)N(C(=O)CC)c5ccccc54)nc3)cc2)C[C@@H]1C` (relative stereo) [Compound 10o, 4-(((2S,4R)-2-Methyl-1-propionyl-1,2,3,4-tetrahydroquinolin-4-yl)amino)-N-(3-((6-(((2S*,4R*)-2-methyl-1-propionyl-1,2,3,4-tetrahydroquinolin-4-yl)amino)pyridin-3-yl)amino)-3-oxopropyl)benzamide] it was 1.48 nM; in that of `CCC(=O)N1c2ccccc2[C@H](NCC2CCN(C(=O)N3CC(C(=O)Nc4ccc(N[C@@H]5C[C@H](C)N(C(=O)CC)c6ccccc65)cc4)C3)CC2)C[C@@H]1C` (relative stereo) [Compound 10p, 1-(4-((((2S*,4R*)-2-Methyl-1-propionyl-1,2,3,4-tetrahydroquinolin-4-yl)amino)methyl)piperidine-1-carbonyl)-N-(4-(((2S,4R)-2-methyl-1-propionyl-1,2,3,4-tetrahydroquinolin-4-yl)amino)phenyl)azetidine-3-carboxamide], 47.5 nM.
In the case of `CCC(=O)N1c2ccccc2[C@H](Nc2ccc(NC(=O)CCCC(=O)Nc3ccc(N[C@@H]4C[C@H](C)N(C(=O)CC)c5cc(CCCN)ccc54)cc3)cc2)C[C@@H]1C` (relative stereo) [Compound 10s, N^1-(4-(((2S*,4R*)-7-(3-Aminopropyl)-2-methyl-1-propionyl-1,2,3,4-tetrahydroquinolin-4-yl)amino)phenyl)-N^5-(4-(((2S,4R)-2-methyl-1-propionyl-1,2,3,4-tetrahydroquinolin-4-yl)amino)phenyl)glutaramide] it was 21.7 nM.
`CCC(=O)N1c2ccccc2[C@H](Nc2ccc(NC(=O)CCCC(=O)Nc3ccc(N[C@@H]4C[C@H](C)N(C(=O)CC)c5cc(/C=C/CN)ccc54)cc3)cc2)C[C@@H]1C` (relative stereo) [Compound 10t, N^1-(4-(((2S*,4R*)-7-((E)-3-Aminoprop-1-en-1-yl)-2-methyl-1-propionyl-1,2,3,4-tetrahydroquinolin-4-yl)amino)phenyl)-N^5-(4-(((2S,4R)-2-methyl-1-propionyl-1,2,3,4-tetrahydroquinolin-4-yl)amino)phenyl)glutaramide] displayed an IC90 of 26.3 nM.

For the origin of these results see patent US12054494B2, “Compound with anticancer activity” (KYOWA KIRIN CO., LTD., priority 2018, dated 2024).
